For one data set, the target named is Insulin receptor (Rattus norvegicus, UniProt P15127). It is filed as cell membranes, Wistar, Liver, Membrane. Further: in other assays of this panel Not Active means under 50% inhibition at 10 µM.
Sequence of Insulin receptor (P15127 27-759 limits assumed): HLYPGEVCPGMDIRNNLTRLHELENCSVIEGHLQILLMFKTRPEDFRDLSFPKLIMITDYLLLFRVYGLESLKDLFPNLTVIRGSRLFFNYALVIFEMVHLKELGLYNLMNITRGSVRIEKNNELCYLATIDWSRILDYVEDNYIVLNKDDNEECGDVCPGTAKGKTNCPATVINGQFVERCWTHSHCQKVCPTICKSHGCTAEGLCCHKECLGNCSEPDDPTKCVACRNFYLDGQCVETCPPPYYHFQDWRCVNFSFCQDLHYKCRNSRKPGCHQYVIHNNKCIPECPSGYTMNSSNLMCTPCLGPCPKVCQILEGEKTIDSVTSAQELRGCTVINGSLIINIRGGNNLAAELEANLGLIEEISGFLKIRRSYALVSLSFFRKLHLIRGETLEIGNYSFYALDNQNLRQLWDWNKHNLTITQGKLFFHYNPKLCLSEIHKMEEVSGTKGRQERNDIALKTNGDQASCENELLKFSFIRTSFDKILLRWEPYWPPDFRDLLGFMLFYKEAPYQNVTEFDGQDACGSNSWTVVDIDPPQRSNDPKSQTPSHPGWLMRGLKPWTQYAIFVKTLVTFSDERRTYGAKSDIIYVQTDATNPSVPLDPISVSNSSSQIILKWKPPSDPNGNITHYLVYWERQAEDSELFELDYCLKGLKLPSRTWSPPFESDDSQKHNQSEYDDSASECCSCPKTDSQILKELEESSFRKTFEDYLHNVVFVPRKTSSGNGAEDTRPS
Sequence of Insulin receptor (P15127 764-1383 limits assumed): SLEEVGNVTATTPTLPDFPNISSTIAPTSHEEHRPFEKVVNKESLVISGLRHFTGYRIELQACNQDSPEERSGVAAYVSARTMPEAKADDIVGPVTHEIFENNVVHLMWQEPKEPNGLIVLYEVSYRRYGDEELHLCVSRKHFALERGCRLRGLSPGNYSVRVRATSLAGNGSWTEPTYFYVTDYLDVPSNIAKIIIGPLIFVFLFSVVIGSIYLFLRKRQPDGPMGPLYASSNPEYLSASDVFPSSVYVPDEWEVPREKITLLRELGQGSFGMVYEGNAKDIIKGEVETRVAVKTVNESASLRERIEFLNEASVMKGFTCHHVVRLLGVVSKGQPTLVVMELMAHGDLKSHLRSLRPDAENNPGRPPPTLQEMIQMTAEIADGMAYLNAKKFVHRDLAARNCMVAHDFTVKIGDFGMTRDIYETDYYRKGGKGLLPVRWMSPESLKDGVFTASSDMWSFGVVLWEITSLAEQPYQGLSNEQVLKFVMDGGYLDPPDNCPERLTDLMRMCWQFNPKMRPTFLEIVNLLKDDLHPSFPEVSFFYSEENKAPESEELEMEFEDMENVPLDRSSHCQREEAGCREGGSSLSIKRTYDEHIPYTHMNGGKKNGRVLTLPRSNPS
Details: not given
Sequence of Sigma non-opioid intracellular receptor 1 (Q99720 whole entry): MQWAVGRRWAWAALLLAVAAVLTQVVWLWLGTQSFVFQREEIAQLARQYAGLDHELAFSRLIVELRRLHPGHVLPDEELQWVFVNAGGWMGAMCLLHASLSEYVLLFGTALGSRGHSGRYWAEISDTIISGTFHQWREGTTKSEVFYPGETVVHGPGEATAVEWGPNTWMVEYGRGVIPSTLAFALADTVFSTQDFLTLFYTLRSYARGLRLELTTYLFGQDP
As for `CC(C(=O)O)c1ccc(CC2CCCC2=O)cc1` (stereo unspecified) [LOXOPROFEN], the IC50 result is given as “Not Active”.

For `Cc1cccc(Nc2ccccc2C(=O)O)c1C` [MEFENAMIC ACID], the IC50 result is listed as “Not Active”.

For the compound `CC(=O)O[C@]1(C(C)=O)CC[C@H]2[C@@H]3C=C(C)C4=CC(=O)CC[C@]4(C)[C@H]3CC[C@@]21C` [MEGESTROL ACETATE], the IC50 entry is “Not Active”.

Consider `COc1ccccc1OCC(O)COC(N)=O` (stereo unspecified) [METHOCARBAMOL], for which the IC50 entry was “Not Active”.

For the compound `CN(Cc1cnc2nc(N)nc(N)c2n1)c1ccc(C(=O)N[C@@H](CCC(=O)O)C(=O)O)cc1` [METHOTREXATE], the IC50 result is listed as “Not Active”.

As to `COC(=O)c1ccccc1O` [METHYL SALICYLATE], the IC50 entry is recorded as “Not Active”.

As to `O=C(O)c1cccnc1` [NIACIN], the IC50 entry is recorded as “Not Active”.

Take `CNC(=C[N+](=O)[O-])NCCSCc1csc(CN(C)C)n1` [NIZATIDINE]: the IC50 entry is “Not Active”.

Consider `C[C@]12C/C(=C/O)C(=O)C[C@@H]1CC[C@@H]1[C@@H]2CC[C@@]2(C)[C@H]1CC[C@]2(C)O` [OXYMETHOLONE], for which the IC50 entry is recorded as “Not Active”.

Test system in the next data set: not listed separately
Briefly: DRUGMATRIX: Glutamate, Kainate radioligand binding (ligand: [3H] Kainic acid). The format is cell membranes, Rattus norvegicus, Wistar, Brain, Membrane. As to conditions: Not Active = under 50% inhibition at 10 µM.
With `CC(C(=O)O)c1ccc(CC2CCCC2=O)cc1` (stereo unspecified) [LOXOPROFEN], the IC50 entry is listed as “Not Active” and the Ki result is listed as “Not Active”.

With `Cc1cccc(Nc2ccccc2C(=O)O)c1C` [MEFENAMIC ACID], the IC50 result is on record as “Not Active” and the Ki entry is given as “Not Active”.

In the case of `CC(=O)O[C@]1(C(C)=O)CC[C@H]2[C@@H]3C=C(C)C4=CC(=O)CC[C@]4(C)[C@H]3CC[C@@]21C` [MEGESTROL ACETATE], the IC50 entry was “Not Active” and the Ki result was “Not Active”.

As to `COc1ccccc1OCC(O)COC(N)=O` (stereo unspecified) [METHOCARBAMOL], the IC50 entry is recorded as “Not Active” and the Ki result is “Not Active”.

For `CN(Cc1cnc2nc(N)nc(N)c2n1)c1ccc(C(=O)N[C@@H](CCC(=O)O)C(=O)O)cc1` [METHOTREXATE], the IC50 entry is “Not Active” and the Ki result is on record as “Not Active”.

For the compound `COC(=O)c1ccccc1O` [METHYL SALICYLATE], the IC50 result is reported as “Not Active” and the Ki entry is “Not Active”.

Consider `O=C(O)c1cccnc1` [NIACIN], for which the IC50 entry is given as “Not Active” and the Ki entry is “Not Active”.

`CNC(=C[N+](=O)[O-])NCCSCc1csc(CN(C)C)n1` [NIZATIDINE]: the IC50 result is given as “Not Active” and the Ki result is “Not Active”.

Take `C[C@]12C/C(=C/O)C(=O)C[C@@H]1CC[C@@H]1[C@@H]2CC[C@@]2(C)[C@H]1CC[C@]2(C)O` [OXYMETHOLONE]: the IC50 result is “Not Active” and the Ki result is recorded as “Not Active”.

Test system in another data set: not listed separately
Briefly: DRUGMATRIX: Glutamate, NMDA, Phencyclidine radioligand binding (ligand: [3H] TCP). The format is cell membranes, Rattus norvegicus, Wistar, Cerebral cortex, Membrane. As to conditions: Not Active = under 50% inhibition at 10 µM.
As for `CC(C(=O)O)c1ccc(CC2CCCC2=O)cc1` (stereo unspecified) [LOXOPROFEN], the IC50 entry is given as “Not Active” and the Ki entry is given as “Not Active”.

With `Cc1cccc(Nc2ccccc2C(=O)O)c1C` [MEFENAMIC ACID], the IC50 entry was “Not Active” and the Ki result is given as “Not Active”.

As to `CC(=O)O[C@]1(C(C)=O)CC[C@H]2[C@@H]3C=C(C)C4=CC(=O)CC[C@]4(C)[C@H]3CC[C@@]21C` [MEGESTROL ACETATE], the IC50 entry was “Not Active” and the Ki entry was “Not Active”.

`COc1ccccc1OCC(O)COC(N)=O` (stereo unspecified) [METHOCARBAMOL]: the IC50 result is given as “Not Active” and the Ki entry is “Not Active”.

Consider `CN(Cc1cnc2nc(N)nc(N)c2n1)c1ccc(C(=O)N[C@@H](CCC(=O)O)C(=O)O)cc1` [METHOTREXATE], for which the IC50 entry is listed as “Not Active” and the Ki entry is recorded as “Not Active”.

As for `COC(=O)c1ccccc1O` [METHYL SALICYLATE], the IC50 entry was “Not Active” and the Ki result is on record as “Not Active”.

For `O=C(O)c1cccnc1` [NIACIN], the IC50 result is listed as “Not Active” and the Ki entry is given as “Not Active”.

Take `CNC(=C[N+](=O)[O-])NCCSCc1csc(CN(C)C)n1` [NIZATIDINE]: the IC50 result is reported as “Not Active” and the Ki result is “Not Active”.

On to `C[C@]12C/C(=C/O)C(=O)C[C@@H]1CC[C@@H]1[C@@H]2CC[C@@]2(C)[C@H]1CC[C@]2(C)O` [OXYMETHOLONE], for which the IC50 result is listed as “Not Active” and the Ki result is “Not Active”.

In another data set the target is T1, Cytochrome P450 1A2 (Homo sapiens, UniProt P05177). Further: in other assays of this panel Not Active means under 50% inhibition at 10 µM.
T1 sequence (P05177 whole entry): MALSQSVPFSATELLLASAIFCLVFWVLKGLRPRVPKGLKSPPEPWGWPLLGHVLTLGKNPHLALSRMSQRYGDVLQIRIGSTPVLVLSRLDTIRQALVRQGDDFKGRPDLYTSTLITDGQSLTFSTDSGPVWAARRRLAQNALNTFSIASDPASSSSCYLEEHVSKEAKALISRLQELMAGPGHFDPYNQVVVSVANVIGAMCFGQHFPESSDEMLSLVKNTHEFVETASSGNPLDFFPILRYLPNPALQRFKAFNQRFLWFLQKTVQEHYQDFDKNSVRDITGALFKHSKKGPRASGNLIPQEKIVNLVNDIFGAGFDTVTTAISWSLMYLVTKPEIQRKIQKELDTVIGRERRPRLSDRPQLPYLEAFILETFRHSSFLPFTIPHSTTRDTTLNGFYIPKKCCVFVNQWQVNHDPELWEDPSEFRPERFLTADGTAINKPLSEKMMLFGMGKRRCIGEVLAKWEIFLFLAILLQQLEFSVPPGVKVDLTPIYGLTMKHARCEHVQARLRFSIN
Particulars: bti-tn-5b1-4.
For the compound `CC(C(=O)O)c1ccc(CC2CCCC2=O)cc1` (stereo unspecified) [LOXOPROFEN], the IC50 result is “Not Active” and the Ki result is “Not Active”.

For `Cc1cccc(Nc2ccccc2C(=O)O)c1C` [MEFENAMIC ACID], the IC50 entry was “Not Active” and the Ki result is listed as “Not Active”.

Take `CC(=O)O[C@]1(C(C)=O)CC[C@H]2[C@@H]3C=C(C)C4=CC(=O)CC[C@]4(C)[C@H]3CC[C@@]21C` [MEGESTROL ACETATE]: the IC50 entry was “Not Active” and the Ki result is on record as “Not Active”.

Consider `COc1ccccc1OCC(O)COC(N)=O` (stereo unspecified) [METHOCARBAMOL], for which the IC50 entry is reported as “Not Active” and the Ki result is “Not Active”.

With `CN(Cc1cnc2nc(N)nc(N)c2n1)c1ccc(C(=O)N[C@@H](CCC(=O)O)C(=O)O)cc1` [METHOTREXATE], the IC50 result is recorded as “Not Active” and the Ki result is given as “Not Active”.

Take `COC(=O)c1ccccc1O` [METHYL SALICYLATE]: the IC50 result is “Not Active” and the Ki entry was “Not Active”.

Regarding `O=C(O)c1cccnc1` [NIACIN], the IC50 result is “Not Active” and the Ki result is listed as “Not Active”.

In the case of `CNC(=C[N+](=O)[O-])NCCSCc1csc(CN(C)C)n1` [NIZATIDINE], the IC50 entry is “Not Active” and the Ki result was “Not Active”.

Regarding `C[C@]12C/C(=C/O)C(=O)C[C@@H]1CC[C@@H]1[C@@H]2CC[C@@]2(C)[C@H]1CC[C@]2(C)O` [OXYMETHOLONE], the IC50 entry is on record as “Not Active” and the Ki result is “Not Active”.

The next data set has as its target Sigma non-opioid intracellular receptor 1 (Homo sapiens, UniProt Q99720). The experiment in a line: DRUGMATRIX: Sigma1 radioligand binding (ligand: [3H] Haloperidol). The format is cell membranes, Jurkat, Membrane. As to conditions: jurkat; Not Active = under 50% inhibition at 10 µM.
Consider `CC(C(=O)O)c1ccc(CC2CCCC2=O)cc1` (stereo unspecified) [LOXOPROFEN], for which the IC50 entry was “Not Active”.

Turning to `Cc1cccc(Nc2ccccc2C(=O)O)c1C` [MEFENAMIC ACID], the IC50 result is listed as “Not Active”.

With `CC(=O)O[C@]1(C(C)=O)CC[C@H]2[C@@H]3C=C(C)C4=CC(=O)CC[C@]4(C)[C@H]3CC[C@@]21C` [MEGESTROL ACETATE], the IC50 result was “Not Active”.

Take `COc1ccccc1OCC(O)COC(N)=O` (stereo unspecified) [METHOCARBAMOL]: the IC50 entry is given as “Not Active”.

Turning to `CN(Cc1cnc2nc(N)nc(N)c2n1)c1ccc(C(=O)N[C@@H](CCC(=O)O)C(=O)O)cc1` [METHOTREXATE], the IC50 entry is “Not Active”.

For `COC(=O)c1ccccc1O` [METHYL SALICYLATE], the IC50 result is reported as “Not Active”.

Turning to `O=C(O)c1cccnc1` [NIACIN], the IC50 result was “Not Active”.

`CNC(=C[N+](=O)[O-])NCCSCc1csc(CN(C)C)n1` [NIZATIDINE]: the IC50 entry was “Not Active”.

As for `C[C@]12C/C(=C/O)C(=O)C[C@@H]1CC[C@@H]1[C@@H]2CC[C@@]2(C)[C@H]1CC[C@]2(C)O` [OXYMETHOLONE], the IC50 result is on record as “Not Active”.

In another data set the target is T2, 5-hydroxytryptamine receptor 1A (Rattus norvegicus, UniProt P19327). Further: in other assays of this panel Not Active means under 50% inhibition at 10 µM.
T2 sequence (P19327 whole entry): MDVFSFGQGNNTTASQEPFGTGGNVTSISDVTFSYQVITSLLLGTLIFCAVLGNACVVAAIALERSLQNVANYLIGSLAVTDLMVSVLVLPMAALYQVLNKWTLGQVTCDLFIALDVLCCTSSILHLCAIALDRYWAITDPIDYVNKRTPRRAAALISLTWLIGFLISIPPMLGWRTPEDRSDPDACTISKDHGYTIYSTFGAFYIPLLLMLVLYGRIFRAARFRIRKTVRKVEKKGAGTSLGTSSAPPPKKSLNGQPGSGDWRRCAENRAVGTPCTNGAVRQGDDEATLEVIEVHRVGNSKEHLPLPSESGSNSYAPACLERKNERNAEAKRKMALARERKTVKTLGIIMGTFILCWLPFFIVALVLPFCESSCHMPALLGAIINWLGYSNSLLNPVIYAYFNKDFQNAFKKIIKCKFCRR
It is filed as cell membranes, CHO-K1, Membrane. As to conditions: cho-k1.
For the compound `CC(C(=O)O)c1ccc(CC2CCCC2=O)cc1` (stereo unspecified) [LOXOPROFEN], the IC50 entry is “Not Active”.

With `Cc1cccc(Nc2ccccc2C(=O)O)c1C` [MEFENAMIC ACID], the IC50 result is “Not Active”.

With `CC(=O)O[C@]1(C(C)=O)CC[C@H]2[C@@H]3C=C(C)C4=CC(=O)CC[C@]4(C)[C@H]3CC[C@@]21C` [MEGESTROL ACETATE], the IC50 result is on record as “Not Active”.

As for `COc1ccccc1OCC(O)COC(N)=O` (stereo unspecified) [METHOCARBAMOL], the IC50 entry is recorded as “Not Active”.

`CN(Cc1cnc2nc(N)nc(N)c2n1)c1ccc(C(=O)N[C@@H](CCC(=O)O)C(=O)O)cc1` [METHOTREXATE]: the IC50 result is given as “Not Active”.

Turning to `COC(=O)c1ccccc1O` [METHYL SALICYLATE], the IC50 entry is on record as “Not Active”.

`O=C(O)c1cccnc1` [NIACIN]: the IC50 entry was “Not Active”.

For `CNC(=C[N+](=O)[O-])NCCSCc1csc(CN(C)C)n1` [NIZATIDINE], the IC50 entry is on record as “Not Active”.

As for `C[C@]12C/C(=C/O)C(=O)C[C@@H]1CC[C@@H]1[C@@H]2CC[C@@]2(C)[C@H]1CC[C@]2(C)O` [OXYMETHOLONE], the IC50 result was “Not Active”.
